In patent US20020068367A1, “Linker and method for solid phase combinatorial synthesis” (priority 2000, published 2002):
Where “and” joins values, the source holds several entries; their conditions need not be identical. Equal entries are not always repeated.

Molecular target: T1, fluorescein-streptavidin (Streptomyces avidinii, UniProt P22629)
T1 construct: purchased Calbiochem-Novabiochem Corp., La Jolla, Calif; 189734
Assay: Standard protein-binding assay: fluorescein-streptavidin binding to linker on streptavidin-coated 96-well plates
Description: Referring to the drawings, and particularly to FIG. 1, generic reactions illustrating two variations of the screening system of the present invention are shown. FIGS. 1a-1d illustrate the generic System 1 reaction wherein a compound comprised of a tether connecting biotin with a chemical compound containing a nitrophenyl group is applied to a streptavidin coated solid phase. The amount of fluorescein-protein complex (c), where the exemplary protein is fluorescein-anti-DNP antibody, bound to the biotin-tether-nitrophenyl complex is characterized by detecting the magnitude of fluorescence emission in each individual well at the completion of the reaction. Similarly, FIG. 1e-1h illustrates the generic System 2 reaction wherein a tether connects 2 biotin groups together and streptavidin is coated on the solid phase. As in the System 1 reaction, the amount of fluorescein-protein complex (g), where the exemplary protein is fluorescein-streptavidin, bound to the biotin-tether-biotin complex is characterized through the detection of fluorescence emissions in each individual well at the completion of the reaction.
In the quantification of the interaction between fluoresceinated-proteins and linkers is characterized by detecting the magnitude of fluorescence emissions in each individual well at the completion of standard protein-binding assay procedures.
A standard protein-binding assay comprises a multi-step process in which strepeavidin pre-treated 96-well plates are exposed to a solution containing linker followed by exposure to a solution containing fluorescein-labeled protein. The 96-well plates are coated with a commercially available streptavidin solution (cat #BPS00100; Xenopore Corp., Hawthorne, N.J.) and then pre-incubated with 300 μl PBS buffer for 10 minutes at room temperature. To complete the pre-incubation process, the PBS buffer is discarded and the plates are further washed five times with water. Once the plate is sufficiently washed, add to the wells 100 μl of pre-mixed binding buffer containing the desired linker, the preparation of which is as described above. After addition of the linker solution, the plate is incubated at 37° C. for one hour. Upon completion of incubation, the linker solution is discarded and the plate is washed with five changes of water. For the fifth step of the assay process, 100 μl of a premixed reaction solution containing 1 M Tris, 0.5 M NaCl and the fluorescein-labeled proteins are added to selected wells of the plate with bound linker. The fluorescein conjugated proteins, anti-dinitrophenyl antibody (rabbit IgG fraction, cat #A-6423) (anti-DNP) and streptavidin (cat #189734) are commercially available from Molecular Probes, Inc., Eugene, Oreg. and Calbiochem Inc., San Diego, Calif. Upon addition of the protein solutions, the plate is further incubated at 37° C. for one hour. Following the incubation period, the reacting solution in each well is discarded and the wells are washed with five changes of 1 M Tris or 30 changes of water. After this final washing step, 250 μl of elution buffer containing 0.5 mM NaOH, methanol and 20 mM EDTA is added to each well and the plate is read using a Spectra MAX Gemini fluorescein plate reader (Molecular Devices Corp., Sunnyvale, Calif.).
Using the standard protein-binding assay described above, linkers 1-7 are evaluated for their ability to bind fluorescein-streptavidin or fluorescein-anti-DNP. The detection of fluorescence emission beyond that of the control would indicate that the fluorescein labeled protein has bound to the corresponding linker. Lack of fluorescence emission would indicate that either the linker or the fluorescein-bound proteins are absent, or that an improper linker was used. This may be interpreted as meaning that the protein of interest, in this exemplary example streptavidin or anti-DNP, “recognizes” the particular library compound being used in the experiment. […]

[1] = Table 5, linker 3 50 nmol, streptavidin-fluorescein 100 pmol
[2] = [Linker] 3 2.5 nmol, fluorescein-streptavidin 100 pmol
[3] = [Linker] 3 5.0 nmol, fluorescein-streptavidin 100 pmol
[4] = [Linker] 3 25.0 nmol, fluorescein-streptavidin 100 pmol
[5] = [Linker] 3 50.0 nmol, fluorescein-streptavidin 100 pmol
[6] = [Linker] 3 250.0 nmol, fluorescein-streptavidin 100 pmol
[7] = [Linker] 3 500.0 nmol, fluorescein-streptavidin 100 pmol
[8] = [Linker] 3 2500.0 nmol, fluorescein-streptavidin 100 pmol
[9] = [Linker] 3 5000.0 nmol, fluorescein-streptavidin 100 pmol
[10] = linker 3 50 nmol, [STREP] 0 pmol (linker only)
[11] = linker 3 50 nmol, [STREP] 0.15 pmol
[12] = linker 3 50 nmol, [STREP] 0.3 pmol
[13] = linker 3 50 nmol, [STREP] 1.0 pmol
[14] = linker 3 50 nmol, [STREP] 3.0 pmol
[15] = linker 3 50 nmol, [STREP] 15.0 pmol
[16] = linker 3 50 nmol, [STREP] 30.0 pmol
[17] = linker 3 50 nmol, [STREP] 45.0 pmol
[18] = linker 3 50 nmol, [STREP] 60.0 pmol

T1 sequence (P22629 25-183): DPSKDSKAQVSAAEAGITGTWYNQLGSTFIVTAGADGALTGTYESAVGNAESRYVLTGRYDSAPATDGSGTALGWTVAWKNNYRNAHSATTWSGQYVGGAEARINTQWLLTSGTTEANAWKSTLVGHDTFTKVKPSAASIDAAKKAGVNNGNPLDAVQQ

O=C(CCCCCNC(=O)CCCCCNC(=O)CCCCC1SCC2NC(=O)NC21)NCCCCCNC(=O)CCCCCNC(=O)CCCCC1SCC2NC(=O)NC21 (stereo not drawn) [Linker 3]
Increase in fluorescence emission (100-fold increase in linker 3 concentration (0.5 nmol to 50 nmol)): no significant increase
Increase in fluorescence emission (100-fold increase in linker concentration at much higher concentrations of linker 3): 2 fold
Fluorescence emission, mean of Columns 1-3 [1]: 479.29
Fluorescence emission, sum of Columns 1-2 [1]: 987.05
Fluorescence emission, sum of Columns 1-3 [1]: 1437.9
Fluorescence emission (Table 5, linker 3 50 nmol, streptavidin-fluorescein 100 pmol, replicates): 492.22 and 494.83 and 450.81
Detected fluorescence emission (Well #1, linker 3 50 nmol, streptavidin-fluorescein 100 pmol): about 500
Fluorescence emission, mean of Columns 1-3 [2]: 181.30
Fluorescence emission, sum of Columns 1-2 [2]: 406.14
Fluorescence emission, sum of Columns 1-3 [2]: 543.91
Fluorescence emission ([Linker] 3 2.5 nmol, fluorescein-streptavidin 100 pmol, replicates): 230.68 and 175.46 and 137.77
Fluorescence emission, mean of Columns 1-3 [3]: 193.80
Fluorescence emission, sum of Columns 1-2 [3]: 467.1
Fluorescence emission, sum of Columns 1-3 [3]: 581.41
Fluorescence emission ([Linker] 3 5.0 nmol, fluorescein-streptavidin 100 pmol, replicates): 239.14 and 227.96 and 114.31
Fluorescence emission, mean of Columns 1-3 [4]: 211.91
Fluorescence emission, sum of Columns 1-2 [4]: 469.52
Fluorescence emission, sum of Columns 1-3 [4]: 635.73
Fluorescence emission ([Linker] 3 25.0 nmol, fluorescein-streptavidin 100 pmol, replicates): 223.84 and 245.68 and 166.21
Fluorescence emission, mean of Columns 1-3 [5]: 280.99
Fluorescence emission, sum of Columns 1-2 [5]: 502.51
Fluorescence emission, sum of Columns 1-3 [5]: 782.96
Fluorescence emission ([Linker] 3 50.0 nmol, fluorescein-streptavidin 100 pmol, replicates): 226.70 and 275.81 and 280.45
Fluorescence emission, mean of Columns 1-3 [6]: 313.49
Fluorescence emission, sum of Columns 1-2 [6]: 597.65
Fluorescence emission, sum of Columns 1-3 [6]: 940.47
Fluorescence emission ([Linker] 3 250.0 nmol, fluorescein-streptavidin 100 pmol, replicates): 261.21 and 336.44 and 342.82
Fluorescence emission, mean of Columns 1-3 [7]: 352.86
Fluorescence emission, sum of Columns 1-2 [7]: 703.68
Fluorescence emission, sum of Columns 1-3 [7]: 1058.6
Fluorescence emission ([Linker] 3 500.0 nmol, fluorescein-streptavidin 100 pmol, replicates): 325.94 and 377.74 and 354.91
Fluorescence emission, mean of Columns 1-3 [8]: 457.81
Fluorescence emission, sum of Columns 1-2 [8]: 920.68
Fluorescence emission, sum of Columns 1-3 [8]: 1373.4
Fluorescence emission ([Linker] 3 2500.0 nmol, fluorescein-streptavidin 100 pmol, replicates): 474.19 and 446.49 and 452.76
Fluorescence emission, mean of Columns 1-3 [9]: 440.22
Fluorescence emission, sum of Columns 1-2 [9]: 883.57
Fluorescence emission, sum of Columns 1-3 [9]: 1320.7
Fluorescence emission ([Linker] 3 5000.0 nmol, fluorescein-streptavidin 100 pmol, replicates): 447.77 and 435.80 and 437.09
Effect on binding capacity of fluorescein-streptavidin (generic System 2): significantly enhances the binding capacity
Fluorescence emission (linker 3 0.5 nmol, fluorescein-streptavidin 100 pmol): 239.14
Fluorescence emission, mean of Columns 1-3 [10]: 150.00 and 142.49
Fluorescence emission, sum of Columns 1-2 [10]: 311.12 and 280.3
Fluorescence emission, sum of Columns 1-3 [10]: 450.01 and 427.46
Fluorescence emission (linker 3 50 nmol, [STREP] 0 pmol (linker only), replicates): 158.28 and 152.84 and 138.89 and 156.28 and 124.02 and 147.16
Fluorescence emission, mean of Columns 1-3 [11]: 147.68
Fluorescence emission, sum of Columns 1-2 [11]: 276.44
Fluorescence emission, sum of Columns 1-3 [11]: 443.03
Fluorescence emission (linker 3 50 nmol, [STREP] 0.15 pmol, replicates): 110.75 and 110.57 and 165.87 and 166.59
Fluorescence emission, mean of Columns 1-3 [12]: 129.73
Fluorescence emission, sum of Columns 1-2 [12]: 226.97
Fluorescence emission, sum of Columns 1-3 [12]: 389.19
Fluorescence emission (linker 3 50 nmol, [STREP] 0.3 pmol, replicates): 72.275 and 154.69 and 162.22
Fluorescence emission, mean of Columns 1-3 [13]: 197.16
Fluorescence emission, sum of Columns 1-2 [13]: 389.28
Fluorescence emission, sum of Columns 1-3 [13]: 591.47
Fluorescence emission (linker 3 50 nmol, [STREP] 1.0 pmol, replicates): 167.36 and 221.92 and 202.19
Fluorescence emission, mean of Columns 1-3 [14]: 253.59
Fluorescence emission, sum of Columns 1-2 [14]: 542.04
Fluorescence emission, sum of Columns 1-3 [14]: 760.78
Fluorescence emission (linker 3 50 nmol, [STREP] 3.0 pmol, replicates): 237.61 and 304.43 and 218.74
Fluorescence emission, mean of Columns 1-3 [15]: 257.02
Fluorescence emission, sum of Columns 1-2 [15]: 482.28
Fluorescence emission, sum of Columns 1-3 [15]: 771.07
Fluorescence emission (linker 3 50 nmol, [STREP] 15.0 pmol, replicates): 220.15 and 262.13 and 288.79
Fluorescence emission, mean of Columns 1-3 [16]: 326.19
Fluorescence emission, sum of Columns 1-2 [16]: 601.80
Fluorescence emission, sum of Columns 1-3 [16]: 978.58
Fluorescence emission (linker 3 50 nmol, [STREP] 30.0 pmol, replicates): 395.67 and 206.13 and 376.78
Fluorescence emission, mean of Columns 1-3 [17]: 474.38
Fluorescence emission, sum of Columns 1-2 [17]: 994.49
Fluorescence emission, sum of Columns 1-3 [17]: 1423.2
Fluorescence emission (linker 3 50 nmol, [STREP] 45.0 pmol, replicates): 454.46 and 540.03 and 428.66
Fluorescence emission, mean of Columns 1-3 [18]: 463.43
Fluorescence emission, sum of Columns 1-2 [18]: 959.13
Fluorescence emission, sum of Columns 1-3 [18]: 1390.3
Fluorescence emission (linker 3 50 nmol, [STREP] 60.0 pmol, replicates): 548.75 and 410.38 and 431.15
Increase in fluorescence emission (linker 3, 100-fold increase in fluorescein-streptavidin concentration (0.15 to 15 pm)): 2 fold
